# According to patent US20110028509A1, “Sulfonamides” (MERCK SERONO SA, priority 2008, published 2011):
# How the values were obtained:
# Assay type in all cases: cell-based
# CXCR3 [1] = target: T1, CXCR3 (Homo sapiens, UniProt P49682); assay: Chemotaxis assay IP10, L1.2 recombinant cells expressing hCXCR3; conditions: L1.2 hCXCR3 cells, IP10 around 0.3 nM, 4 hours
# T1 sequence (P49682 1-368): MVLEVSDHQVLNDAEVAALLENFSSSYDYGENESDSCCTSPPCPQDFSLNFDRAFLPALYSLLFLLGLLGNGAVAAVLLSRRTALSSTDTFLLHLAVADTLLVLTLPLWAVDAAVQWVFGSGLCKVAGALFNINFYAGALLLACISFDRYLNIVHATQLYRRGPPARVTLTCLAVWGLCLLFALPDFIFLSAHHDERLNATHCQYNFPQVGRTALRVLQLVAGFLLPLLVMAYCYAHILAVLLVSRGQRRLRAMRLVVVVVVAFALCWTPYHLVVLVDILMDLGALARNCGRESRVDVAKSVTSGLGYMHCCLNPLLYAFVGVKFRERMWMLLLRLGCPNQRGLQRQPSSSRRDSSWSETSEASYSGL
# Procedure: Human CXCR3 cDNA was amplified by PCR from a human cells cDNA library (Clontech) and subcloned into pcDNA3.1 (Invitrogen). Murine pre-B L1.2 cells were transfected with hCXCR3-pcDNA3.1 and were grown at 37° C., 5% CO2 in RPMI 1640 medium (Invitrogen, USA) supplemented with 5% heat inactivated fetal calf serum (Cancerra, Australia), 2 mM glutamine (Invitrogen), 50 units ml−1 penicillin, 50 μml−1 streptomycin. Stable transfectant clonal populations were selected using 800 μg/ml geneticin.
# L1.2 recombinant cells expressing the receptor hCXCR3 were maintained in culture in RPMI 1640 (invitrogen), 5% Foetal Bovine Serum (invitrogen), 2 mM glutamine(invitrogen), 50 u/ml penicillin/streptomycin (invitrogen), at 37° C.-5% CO2—in an H2O saturated incubator. In order to stimulate the expression of the receptor, cells were incubated overnight with 5 mM butyric acid (Sigma)
# This mix of cells/compounds was then incubated at 37° C.-5% CO2—in an H2O saturated incubator during 30 minutes. Cells were then dispensed as a drop on each corresponding wells of the chemotaxis system. Cell migration was then induced at 37° C.-5% CO2—in an H2O incubator during 4 hours. Filters were then removed and cells that had migrated were transferred in a black plate (Costar). The plates were stored overnight at −80° C. Cell migration ratio was calculated using the cyquant dye (Molecular Probes-C7026).
# CXCR3 [2] = target: T1, CXCR3; assay: CXCR3 Ca2+ mobilization (FLIPR), stable hCXCR3-CHO cell line, I-TAC stimulated; design: host or cells: CHO cells stably expressing hCXCR3; conditions: hCXCR3-CHO cells, I-TAC 100 nM stimulated Ca2+ response; read-out: Ca-ITAC
# Method in brief: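 Ca2+ mobilization triggered by I-TAC (100 nM) measured by FLIPR in a stable hCXCR3-CHO line. Dye-loaded (60 min) cells preincubated with compounds 20 minutes at room temperature; antagonism given relative to the compound-free I-TAC signal set at 100%.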
# CXCR3 [3] = target: T1, CXCR3; assay: Chemotaxis assay ITAC (CXCL11), L1.2-CXCR3 cells; design: expressed in transfected cells; conditions: 1 nM CXCL11 (I-TAC), 4 hours
# Method in brief: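 Murine pre-B L1.2 cells stably expressing human CXCR3, pretreated 24 h with 5 mM butyric acid, preincubated with compound 30 min at 37 °C in 1% DMSO. Migration toward 1 nM CXCL11 (also with compound) through 8 μm filters for 4 h at 37 °C; migrated cells counted with CyQuant GR dye.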
SMILES,IC50 (CXCR3 [1]),IC50 (CXCR3 [2]),IC50 (CXCR3 [3])
"COCCCS(=O)(=O)NC(=O)c1ccc(CN(Cc2ccccn2)S(=O)(=O)c2ccc(Cl)cc2)cc1 [Example 54, N-(3-methoxy-propane-1-sulfonyl)-4-{[[(4-chlorophenyl)sulfonyl](pyridin-2-yl-methyl)amino]methyl}benzamide]",3.83 µM,5600 nM,
"O=S(=O)(c1ccc(Cl)cc1)N(Cc1ccc(-c2nnn[nH]2)c(F)c1)Cc1ccccn1 [Example 56, 4-chloro-N-[3-fluoro-4-(1H-tetrazol-5-yl)benzyl]-N-(pyridin-2 ylmethyl)benzene sulfonamide]",1.16 µM,5300 nM,
"O=S(=O)(c1ccc(Cl)cc1)N(Cc1ccccn1)Cc1ccc(-c2nnn[nH]2)cc1F [Example 57, 4-chloro-N-[2-fluoro-4-(1H-tetrazol-5-yl)benzyl]-N-(pyridin-2 ylmethyl)benzene sulfonamide]",0.44 µM,5000 nM,1780 nM
"O=S(=O)(c1ccc(Cl)cc1)N(Cc1ccc(-c2nnn[nH]2)cc1)Cc1ccc(F)cc1F [Example 60, 4-chloro-N-(2,4-difluorobenzyl)-N-[4-(2H-tetrazol-5-yl)benzyl]benzenesulfonamide]",0.681 µM,1450 nM,
"O=S(=O)(c1ccc(Cl)cc1)N(Cc1ccc(-c2nnn[nH]2)cc1)Cc1c(F)cccc1F [Example 62, 4-chloro-N-(2,6-difluorobenzyl)-N-[4-(2H-tetrazol-5-yl)benzyl]benzene sulfonamide]",0.183 µM,44 nM,212 nM
"O=S(=O)(c1ccc(Cl)cc1)N(Cc1ccc(-c2nnn[nH]2)cc1)Cc1ccccc1Cl [Example 63, 4-chloro-N-(2-chlorobenzyl)-N-[4-(2H-tetrazol-5-yl)benzyl]benzenesulfonamide]",0.548 µM,415 nM,
"O=C(O)c1ccc(CN(Cc2ccccn2)S(=O)(=O)c2ccc(Cl)cc2)cc1F [Example 64, 4-{[(4-Chloro-benzenesulfonyl)-pyridin-2-ylmethyl-amino]-methyl}-2-fluoro-benzoic acid]",1.13 µM,3040 nM,3150 nM
"O=C(O)c1ccc(CN(Cc2ccccc2F)S(=O)(=O)c2ccc(Cl)cc2)cc1F [Example 65, 4-{[(4-Chloro-benzenesulfonyl)-(2-fluoro-benzyl)-amino]-methyl}-2-fluorobenzoic acid]",0.513 µM,1010 nM,2300 nM
"CC(C)(C)c1nc(CN(Cc2ccc(-c3nnn[nH]3)cc2)S(=O)(=O)c2ccc(Cl)cc2)no1 [Example 69, 4-chloro-N-(5-tert-butyl-1,2,4-oxadiazol-3-ylmethyl)-N-[4-(2H-tetrazol-5yl)benzyl]benzene sulfonamide]",0.254 µM,56 nM,560 nM
"O=S(=O)(c1ccc(Cl)cc1)N(Cc1ccc(-c2nnn[nH]2)cc1)Cc1cc2ccccc2cn1 [Example 76, 4-chloro-N-(isoquinolin-3-ylmethyl)-N-[4-(2H-tetrazol-5yl)benzyl]benzene sulfonamide]",0.911 µM,300 nM,
O=S(=O)(c1ccc(Cl)cc1F)N(Cc1ccc(-c2nnn[nH]2)cc1)Cc1ccccn1 [Example 77],0.409 µM,500 nM,409 nM
CCOc1ccc(S(=O)(=O)N(Cc2ccc(-c3nnn[nH]3)c(F)c2)Cc2ccccn2)cc1 [Example 80],0.158 µM,55 nM,909 nM
"N#Cc1ccc(S(=O)(=O)N(Cc2ccc(-c3nnn[nH]3)c(F)c2)Cc2ccccc2F)cc1 [Example 81, 4-cyano-N-(2-fluorobenzyl)-N-[3-fluoro-4-(2H-tetrazol-5-yl)benzyl]benzene sulfonamide]",0.193 µM,79 nM,565 nM
"N#Cc1ccc(S(=O)(=O)N(Cc2ccc(-c3nnn[nH]3)cc2)Cc2ccccc2F)cc1 [Example 83, 4-cyano-N-(2-fluorobenzyl)-N-[4-(2H-tetrazol-5-yl)benzyl]benzenesulfonamide]",0.236 µM,10 nM,1040 nM
CCOc1ccc(S(=O)(=O)N(Cc2ccc(C(=O)NCC(O)c3ccccc3)cc2)Cc2ccccn2)cc1 (stereo not shown) [Example 84],0.01 µM,20 nM,20 nM
CCOc1ccc(S(=O)(=O)N(Cc2ccc(C(=O)NC3(c4ccccc4)CC3)cc2)Cc2ccccn2)cc1 [Example 88],0.01 µM,10 nM,30 nM
"CCOc1ccc(S(=O)(=O)N(Cc2ccc(C(=O)N[C@H]3[C@@H]4CN(C(=O)OC(C)(C)C)C[C@@H]43)cc2)Cc2ccccn2)cc1 [Example 89, rac-6-(4-{[(4-Ethoxy-benzenesulfonyl)-pyridin-2-ylmethyl-amino]-methyl}-benzoylamino)-3-aza-bicyclo[3.1.0]hexane-3-carboxylic acid tert-butyl ester]",0.01 µM,50 nM,
CCOc1ccc(S(=O)(=O)N(Cc2ccc(C(=O)NC3(c4ccccc4)CC3)cc2)Cc2cccnc2)cc1 [Example 93],0.04 µM,30 nM,
CC(C)(C)OC(=O)N1C[C@@H]2[C@H](C1)[C@H]2NC(=O)c1ccc(CN(Cc2ccccn2)S(=O)(=O)c2ccc(C#N)cc2)cc1 [Example 96],0.01 µM,10 nM,
N#Cc1ccc(S(=O)(=O)N(Cc2ccc(C(=O)NCCc3cccc(Cl)c3)cc2)Cc2ccccn2)cc1 [Example 97],0.05 µM,70 nM,
CC(CNC(=O)c1ccc(CN(Cc2ccccn2)S(=O)(=O)c2ccc(C#N)cc2)cc1)c1ccccc1 (stereo not shown) [Example 98],0.16 µM,400 nM,
N#Cc1ccc(S(=O)(=O)N(Cc2ccc(C(=O)NC3(c4cccc(C#N)c4)CC3)cc2)Cc2ccccn2)cc1 [Example 101],0.19 µM,60 nM,
N#Cc1ccc(S(=O)(=O)N(Cc2ccc(C(=O)NCC(O)c3ccccc3)cc2)Cc2ccccn2)cc1 (stereo not shown) [Example 102],0.01 µM,20 nM,20 nM
CCOc1ccc(S(=O)(=O)N(Cc2ccc(C(=O)O)cc2)Cc2cccnc2)cc1 [Example 157],4.18 µM,1620 nM,
O=C(Cc1cccc(Cl)c1)Nc1ccc(CN(Cc2ccccn2)S(=O)(=O)c2ccc(Cl)cc2)cc1 [Example 160],0.12 µM,100 nM,
N#Cc1ccc(S(=O)(=O)N(Cc2ccc(NC(=O)Cc3cccc(Cl)c3)cc2)Cc2ccccn2)cc1 [Example 161],0.06 µM,20 nM,
"O=C(Nc1ccc(CN(Cc2ccccn2)S(=O)(=O)c2ccc(Cl)cc2)cc1)C1(c2ccccc2)CC1 [Example 162, 1-Phenyl-cyclopropanecarboxylic acid (4-{[(4-chloro-benzenesulfonyl)-pyridin-2-ylmethyl-amino]-methyl}-phenyl)-amide]",0.07 µM,170 nM,170 nM
N#Cc1ccc(S(=O)(=O)N(Cc2ccc(NC(=O)C3(c4ccccc4)CC3)cc2)Cc2ccccn2)cc1 [Example 163],0.02 µM,20 nM,120 nM
